Source: patent US11078198B2 (BRISTOL-MYERS SQUIBB COMPANY, priority 2017, dated 2021)
pEC50: −log10 of the molar value.

molecular target: T1, human FXR (Homo sapiens, UniProt Q96RI1); assay: transient human FXR/Gal4-luciferase reporter assay; assay type: cell-based; settings: Gal4-hFXR transfected HEK293 reporter cells; relative to 8 μM GW-4064
T1 construct: expressed in transfected cells; host or cells: HEK293 cells stably carrying a 5xGal4-response-element firefly luciferase reporter, transiently transfected with pcDNA3.1-Gal4-FXR
T1 sequence (Q96RI1 262-486 limits assumed): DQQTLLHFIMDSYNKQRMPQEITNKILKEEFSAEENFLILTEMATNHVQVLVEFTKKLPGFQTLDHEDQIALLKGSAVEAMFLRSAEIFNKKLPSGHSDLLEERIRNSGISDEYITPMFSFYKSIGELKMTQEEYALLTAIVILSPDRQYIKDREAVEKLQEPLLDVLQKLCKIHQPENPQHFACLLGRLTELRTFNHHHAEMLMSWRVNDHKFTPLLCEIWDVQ
Method in brief: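 Transient Gal4-hFXR LBD fusion (pcDNA3.1, Lipofectamine, overnight) expressed in a HEK293 reporter line stably bearing five Gal4 elements upstream of firefly luciferase, grown in charcoal/dextran-stripped FBS. Compound dilutions in DMSO incubated with cells overnight at 37° C, 5% CO2, before luciferase readout.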

| Structure (SMILES) | pEC50 |
| --- | --- |
| COc1cc(C(=O)O)cc2sc(N3CCC4(C=C(c5c(-c6ccccc6C(F)(F)F)noc5C5CC5)C4)CC3)nc12 [Example 71, 2-(2-(5-Cyclopropyl-3-(2-(trifluoromethyl)phenyl)isoxazol-4-yl)-7-azaspiro[3.5]non-1-en-7-yl)-4-methoxybenzo[d]thiazole-6-carboxylic acid] | 8.03 |
| CC(C)Oc1cc(C(=O)O)nc2ccc(N3CCC4(C=C(c5c(-c6ccccc6C(F)(F)F)noc5C5CC5)C4)CC3)cc12 [Example 104, 6-(2-(5-Cyclopropyl-3-(2-(trifluoromethyl)phenyl)isoxazol-4-yl)-7-azaspiro[3.5]non-1-en-7-yl)-4-isopropoxyquinoline-2-carboxylic acid] | 7.23 |
| O=C(O)c1cc2ccc(N3CCC4(C=C(c5c(-c6c(F)cccc6F)noc5C5CC5)C4)CC3)cc2nn1 [Example 79, 7-(2-(5-Cyclopropyl-3-(2,6-difluorophenyl)isoxazol-4-yl)-7-azaspiro[3.5]non-1-en-7-yl)cinnoline-3-carboxylic acid] | 6.13 |
| O=C(O)c1ccc2nc(N3CCC4(C=C(c5c(-c6ccccc6OC(F)(F)F)noc5C5CC5)C4)CC3)ccc2c1 [Example 140, 2-(2-(5-Cyclopropyl-3-(2-(trifluoromethoxy)phenyl)isoxazol-4-yl)-7-azaspiro[3.5]non-1-en-7-yl)quinoline-6-carboxylic acid] | 6.88 |
| O=C(O)c1cc(C(F)(F)F)cc2nc(N3CCC4(C=C(c5c(-c6c(Cl)cncc6Cl)noc5C5CC5)C4)CC3)ccc12 [Example 60, 2-(2-(5-Cyclopropyl-3-(3,5-dichloropyridin-4-yl)isoxazol-4-yl)-7-azaspiro[3.5]non-1-en-7-yl)-7-(trifluoromethyl)quinoline-5-carboxylic acid] | 8.14 |
| O=C(O)c1cc(F)c2nc(N3[C@@H]4CC[C@H]3CC3(COC(c5c(-c6c(Cl)cccc6Cl)noc5C5CC5)O3)C4)sc2c1 (stereo partly drawn) [Example 41, 2-((1R,5S)-2′-(5-cyclopropyl-3-(2,6-dichlorophenyl)isoxazol-4-yl)-8-azaspiro[bicyclo[3.2.1]octane-3,4′-[1,3]dioxolan]-8-yl)-4-fluorobenzo[d]thiazole-6-carboxylic acid] | 5.77 |
| O=C(O)c1cc(C(F)(F)F)c2cc(N3CCC4(C=C(c5c(-c6ccccc6C(F)(F)F)noc5C5CC5)C4)CC3)ccc2n1 [Example 99, 6-(2-(5-Cyclopropyl-3-(2-(trifluoromethyl)phenyl)isoxazol-4-yl)-7-azaspiro[3.5]non-1-en-7-yl)-4-(trifluoromethyl)quinoline-2-carboxylic acid] | 7.04 |
| C[Si](C)(C)CCOCn1cc(C(=O)O)c2ccc(N3CCC4(C=C(c5c(-c6c(Cl)cccc6Cl)noc5C5CC5)C4)CC3)cc21 [Example 131, 6-(2-(5-Cyclopropyl-3-(2,6-dichlorophenyl)isoxazol-4-yl)-7-azaspiro[3.5]non-1-en-7-yl)-1-((2-(trimethylsilyl)ethoxy)methyl)-1H-indole-3-carboxylic acid] | 6.35 |
| CNC(=O)c1cc(F)c2nc(N3CCC4(C=C(c5c(-c6c(Cl)cncc6Cl)noc5C5CC5)C4)CC3)sc2c1 [Example 198, 2-(2-(5-Cyclopropyl-3-(3,5-dichloropyridin-4-yl)isoxazol-4-yl)-7-azaspiro[3.5]non-1-en-7-yl)-4-fluoro-N-methylbenzo[d]thiazole-6-carboxamide] | 6.51 |
| O=C(O)c1ccc(N2CCC3(C=C(c4c(C(F)F)cnn4-c4ccccc4C(F)(F)F)C3)CC2)nc1 [Example 223] | 6.69 |
| O=C(O)c1cc(F)c2nc(N3CCC4(C=C(c5c(-c6cccnc6C(F)(F)F)noc5C5CC5)C4)CC3)sc2c1 [Example 138, 2-(2-(5-Cyclopropyl-3-(2-(trifluoromethyl)pyridin-3-yl)isoxazol-4-yl)-7-azaspiro[3.5]non-1-en-7-yl)-4-fluorobenzo[d]thiazole-6-carboxylic acid] | 6.50 |
| COc1cc(C(=O)NS(C)(=O)=O)nc2ccc(N3CCC4(C=C(c5c(-c6c(Cl)cncc6Cl)noc5C5CC5)C4)CC3)cc12 [Example 195, 6-(2-(5-Cyclopropyl-3-(3,5-dichloropyridin-4-yl)isoxazol-4-yl)-7-azaspiro[3.5]non-1-en-7-yl)-4-methoxy-N-(methylsulfonyl)quinoline-2-carboxamide] | 7.12 |
| NC(=O)c1cc(F)c2nc(N3CCC4(C=C(c5c(-c6c(Cl)cncc6Cl)noc5C5CC5)C4)CC3)sc2c1 [Example 202, 2-(2-(5-Cyclopropyl-3-(3,5-dichloropyridin-4-yl)isoxazol-4-yl)-7-azaspiro[3.5]non-1-en-7-yl)-4-fluorobenzo[d]thiazole-6-carboxamide] | 6.81 |
| O=C(O)c1cc(C(F)(F)F)c2cc(N3CCC4(C=C(c5c(C6CCCCC6)noc5C5CC5)C4)CC3)ccc2n1 [Example 98, 6-(2-(3-Cyclohexyl-5-cyclopropylisoxazol-4-yl)-7-azaspiro[3.5]non-1-en-7-yl)-4-(trifluoromethyl)quinoline-2-carboxylic acid] | 5.76 |
| COc1ccc(C(=O)O)c2ccc(N3CCC4(C=C(c5c(-c6c(Cl)cncc6Cl)noc5C5CC5)C4)CC3)nc12 [Example 64, 2-(2-(5-Cyclopropyl-3-(3,5-dichloropyridin-4-yl)isoxazol-4-yl)-7-azaspiro[3.5]non-1-en-7-yl)-8-methoxyquinoline-5-carboxylic acid] | 7.31 |
| CS(=O)(=O)NC(=O)c1cc(F)c2nc(N3CCC4(C=C(c5c(-c6c(Cl)cccc6Cl)noc5C5CC5)C4)CC3)sc2c1 [Example 180, 2-(2-(5-Cyclopropyl-3-(2,6-dichlorophenyl)isoxazol-4-yl)-7-azaspiro[3.5]non-1-en-7-yl)-4-fluoro-N-(methylsulfonyl)benzo[d]thiazole-6-carboxamide] | 7.46 |
| O=C(O)c1cc2ccc(N3CCC4(C=C(c5c(-c6ccncc6Cl)noc5C5CC5)C4)CC3)cc2nn1 [Example 80, 7-(2-(3-(3-Chloropyridin-4-yl)-5-cyclopropylisoxazol-4-yl)-7-azaspiro[3.5]non-1-en-7-yl)cinnoline-3-carboxylic acid] | 5.87 |
| O=C(O)c1ncc(N2CCC3(C=C(c4c(-c5c(Cl)cccc5Cl)noc4C4CC4)C3)CC2)cn1 [Example 22, 5-(2-(5-Cyclopropyl-3-(2,6-dichlorophenyl)isoxazol-4-yl)-7-azaspiro[3.5]non-1-en-7-yl) pyrimidine-2-carboxylic acid] | 5.82 |
| O=C(O)c1cnc(N2CCC3(C=C(c4c(-c5c(Cl)cccc5Cl)noc4C4CC4)C3)CC2)cc1C(F)(F)F [Example 116, 6-(2-(5-Cyclopropyl-3-(2,6-dichlorophenyl)isoxazol-4-yl)-7-azaspiro[3.5]non-1-en-7-yl)-4-(trifluoromethyl)nicotinic acid] | 6.87 |
| Cn1nc(C(=O)O)c2ccc(N3CCC4(C=C(c5c(-c6ccccc6OC(F)(F)F)noc5C5CC5)C4)CC3)cc21 [Example 165, 6-(2-(5-Cyclopropyl-3-(2-(trifluoromethoxy)phenyl)isoxazol-4-yl)-7-azaspiro[3.5]non-1-en-7-yl)-1-methyl-1H-indazole-3-carboxylic acid] | 5.53 |
| CS(=O)(=O)NC(=O)c1ccc2cc(N3CCC4(C=C(c5c(-c6c(Cl)cccc6Cl)noc5C5CC5)C4)CC3)ccc2n1 [Example 194, 6-(2-(5-Cyclopropyl-3-(2,6-dichlorophenyl)isoxazol-4-yl)-7-azaspiro[3.5]non-1-en-7-yl)-N-(methylsulfonyl)quinoline-2-carboxamide] | 6.59 |
| O=C(O)c1ccc(N2CCC3(C=C(c4c(C(F)F)cnn4-c4ccccc4OC(F)(F)F)C3)CC2)nc1 [Example 218, 6-(2-(4-(Difluoromethyl)-1-(2-(trifluoromethoxy)phenyl)-1H-pyrazol-5-yl)-7-azaspiro[3.5]non-1-en-7-yl)nicotinic acid] | 5.96 |
| O=C(O)c1ccc2cc(N3CCC4(C=C(c5c(-c6c(F)cccc6Cl)noc5C5CC5)C4)CC3)ccc2n1 [Example 156, 6-(2-(3-(2-Chloro-6-fluorophenyl)-5-cyclopropylisoxazol-4-yl)-7-azaspiro[3.5]non-1-en-7-yl)quinoline-2-carboxylic acid] | 6.49 |
| Cn1nc(C(=O)O)c2cc(N3CCC4(C=C(c5c(-c6ccccc6OC(F)(F)F)noc5C5CC5)C4)CC3)ccc21 [Example 174, 5-(2-(5-Cyclopropyl-3-(2-(trifluoromethoxy)phenyl)isoxazol-4-yl)-7-azaspiro[3.5]non-1-en-7-yl)-1-methyl-1H-indazole-3-carboxylic acid] | 6.63 |
| O=C(O)c1cc(OC(F)(F)F)c2nc(N3CCC4(C=C(c5c(-c6c(Cl)cncc6Cl)noc5C5CC5)C4)CC3)sc2c1 [Example 50, 2-(2-(5-Cyclopropyl-3-(3,5-dichloropyridin-4-yl)isoxazol-4-yl)-7-azaspiro[3.5]non-1-en-7-yl)-4-(trifluoromethoxy)benzo[d]thiazole-6-carboxylic acid] | 7.96 |
| CC(C)NC(=O)c1cc(F)c2nc(N3CCC4(C=C(c5c(-c6c(Cl)cncc6Cl)noc5C5CC5)C4)CC3)sc2c1 [Example 199, 2-(2-(5-Cyclopropyl-3-(3,5-dichloropyridin-4-yl)isoxazol-4-yl)-7-azaspiro[3.5]non-1-en-7-yl)-4-fluoro-N-isopropylbenzo[d]thiazole-6-carboxamide] | 6.37 |
| COc1cncc(F)c1-c1noc(C2CC2)c1C1=CC2(CCN(c3nc4c(F)cc(C(=O)O)cc4s3)CC2)C1 [Example 69, 2-(2-(5-Cyclopropyl-3-(3-fluoro-5-methoxypyridin-4-yl)isoxazol-4-yl)-7-azaspiro[3.5]non-1-en-7-yl)-4-fluorobenzo[d]thiazole-6-carboxylic acid] | 6.14 |
